# Test results from US7534781B2 (DSM IP Assets B.V., priority 2003, dated 2009).
# How the values were obtained:
# Type in all cases: physicochemical
# [1] = Bulk density according to USP 24, method I; conditions: trihydrate
# From the text: Preferably, the crystalline powder according to the invention has a bulk density higher than 0.46 g/ml, preferably higher than 0.5 g/ml, more preferably higher than 0.55 g/ml. This further improves the flow properties. Moreover, an increased bulk density is advantageous as crystalline powder may be fed into a certain volume, for instance a capsule. There is no specific upper limit for the bulk density. The bulk density may be less than 0.8 g/ml, for instance less than 0.7 g/ml. The bulk density is preferably determined according to USP 24, method I, (page 1913).
# The bulk density was determined according to USP 24, method I, (page 1913).
# [2] = Tapped density according to USP 24, method II; conditions: trihydrate; for Tap. dens. (dt): USP 24, method II; for db*(1/db − 1/dt)*100%: compressibility index from bulk and tapped density
# [3] = Particle size distribution (d10, d50) by laser diffraction, Malvern particle sizer 2600 C; conditions: dry powder, f=300 mm, trihydrate
# From the text: The d10 and d50 are known ways for indicating a particle size distribution, d50 referring to the value for the particle size such that 50 vol. % of the particles has a particle size smaller than said value. The d50 is also referred to as average volume-based grain size. Likewise, d10 refers to the value for the particle size such that 10 vol. % of the particles has a particle size smaller than said value. A preferred way for determining d10 and d50 is laser diffraction, preferably using Malvern equipment. A suitable apparatus for determining d10 and d50 is a Malvern particle sizer 2600 C obtainable from Malvern Instruments Ltd., Malvern UK, for instance using an objective of f=300 mm and a beam length of 14.30 mm. A polydisperse analysis model may advantageously be used.
# The particle size distribution (including d10 and d50) of samples from the mixer was determined using a Malvern particle sizer 2600 C with objective f=300 mm, malvern sample measurement unit PS1 and a Malvern dry powder feeder PS 64. The beam length was 14.30 mm. A polydisperse analysis model was used.
# [4] = Flow through Klein cup; conditions: Klein cup 8 mm; overheads fraction after air jet sieving 75 μm
# Experimental: The powder of example V was subjected to air jet sieving (200 LS-N air jet sieve manufactured by Hosakawa Alpine). Sieving was carried out using a 75 μm screen during 10 minutes. A few agglomerates formed during said sieving were removed from the overheads fraction (not passed through the sieve) tusing a vibrating sieve (425 μm), after which tapped density, bulk density, d50, d10 of the resulting crystals of the overheads fraction was determined.
# [5] = Dissolution test of capsules, USP 27 amoxicillin capsules, apparatus 1; conditions: 500 mg (anhydrous basis) in gelatine capsule size 0, 900 ml water, 37° C., 100 rpm
# Experimental: In one aspect of the invention, the crystalline powder according to the invention has a high dissolution rate. Preferably, the crystalline powder according to the invention has a T85% of less than 55 minutes, preferably less than 50 minutes, preferably less than 40 minutes, preferably less than 30 minutes, preferably less than 25 minutes, preferably less than 20 minutes. T85% may for instance be above 5 minutes. […] The determination of T85% is preferably carried out under conditions as defined in USP 27, chapter “amoxicillin capsules”, involving the use of apparatus 1 and applying a stirring rate of 100 rpm (USP 27, paragraph 711). Preferably, samples are taken at regular intervals, e.g. each 5 minutes, to determine the quantity of dissolved amoxicillin by UV absorption.
# No auxiliaries were added. Dissolution tests were applied using apparatus 1 under the conditions as described in USP 27 under paragraph “amoxicillin capsules”, including a stirring rate of 100 rpm and a temperature of 37° C. Six beakers each containing 900 ml of water were used. Samples were taken each 5 minutes, and the quantity of dissolved amoxicillin were determined employing UV absorption at the wavelength of maximum absorbance at 272 nm. • 84 wt. % of the amoxicillin was dissolved in 15 minutes. • 90 wt. % of the amoxicillin was dissolved in 20 minutes.
structure (smiles),measurement,setting,value
"CC1(C)S[C@@H]2[C@H](NC(=O)[C@H](N)c3ccc(O)cc3)C(=O)N2[C@H]1C(=O)O.O.O.O [Ref. B, amoxicillin trihydrate, reference compound]",Bulk dens. (db),[1],0.26 g/mL
same,Tap. dens. (dt),[2],0.47 g/mL
same,db*(1/db − 1/dt)*100%,[2],45%
"CC1(C)S[C@@H]2[C@H](NC(=O)[C@H](N)c3ccc(O)cc3)C(=O)N2[C@H]1C(=O)O.O.O.O [Ex. II, amoxicillin trihydrate]",Bulk dens. (db),[1],0.56 g/mL
same,Tap. dens. (dt),[2],0.78 g/mL
same,db*(1/db − 1/dt)*100%,[2],28%
same,d10,[3],8.8 μm
same,d50,[3],42.8 μm
"CC1(C)S[C@@H]2[C@H](NC(=O)[C@H](N)c3ccc(O)cc3)C(=O)N2[C@H]1C(=O)O.O.O.O [Ex. VI, amoxicillin trihydrate]",Bulk dens. (db),[1],0.59 g/mL
same,Tap. dens. (dt),[2],0.74 g/mL
same,db*(1/db − 1/dt)*100%,[2],20%
same,d10,[3],36 μm
same,d50,[3],86 μm
same,flow through Klein cup,[4],flows through Klein cup 8 mm
"CC1(C)S[C@@H]2[C@H](NC(=O)[C@H](N)c3ccc(O)cc3)C(=O)N2[C@H]1C(=O)O.O.O.O [Ex. IV, amoxicillin trihydrate]",Bulk dens. (db),[1],0.54 g/mL
same,Tap. dens. (dt),[2],0.81 g/mL
same,db*(1/db − 1/dt)*100%,[2],33%
same,d10,[3],7.0 μm
same,d50,[3],37.0 μm
same,amoxicillin dissolved,[5]; in 15 minutes,84 wt. %
same,amoxicillin dissolved,[5]; in 20 minutes,90 wt. %
"CC1(C)S[C@@H]2[C@H](NC(=O)[C@H](N)c3ccc(O)cc3)C(=O)N2[C@H]1C(=O)O.O.O.O [Ex. I, amoxicillin trihydrate]",Bulk dens. (db),[1],0.51 g/mL
same,Tap. dens. (dt),[2],0.73 g/mL
same,db*(1/db − 1/dt)*100%,[2],30%
"CC1(C)S[C@@H]2[C@H](NC(=O)[C@H](N)c3ccc(O)cc3)C(=O)N2[C@H]1C(=O)O.O.O.O [Comp. A, amoxicillin trihydrate, reference compound]",Bulk dens. (db),[1],0.26 g/mL
same,Tap. dens. (dt),[2],0.55 g/mL
same,db*(1/db − 1/dt)*100%,[2],53%
same,d10,[3],4.0 μm
same,d50,[3],17 μm
"CC1(C)S[C@@H]2[C@H](NC(=O)[C@H](N)c3ccc(O)cc3)C(=O)N2[C@H]1C(=O)O.O.O.O [Ex. V, amoxicillin trihydrate]",Bulk dens. (db),[1],0.58 g/mL
same,Tap. dens. (dt),[2],0.79 g/mL
same,db*(1/db − 1/dt)*100%,[2],26%
same,d10,[3],19 μm
same,d50,[3],61 μm
"CC1(C)S[C@@H]2[C@H](NC(=O)[C@H](N)c3ccc(O)cc3)C(=O)N2[C@H]1C(=O)O.O.O.O [Ex. III, amoxicillin trihydrate]",Bulk dens. (db),[1],0.56 g/mL
same,Tap. dens. (dt),[2],0.81 g/mL
same,db*(1/db − 1/dt)*100%,[2],31%
same,d10,[3],9.9 μm
same,d50,[3],47.8 μm
